From publication PMC2829385 (The Journal of investigative dermatology, 2009)
Where “and” joins values, the source holds several entries; their conditions need not be identical. Identical values can stand only once. Entries after “also recorded” stand apart in the source; their conditions may differ. Counter-ions that a name gives are not always drawn.

What was measured:
[1] = test system: UV-induced skin carcinogenesis; conditions: mice, oral caffeine as drinking fluid 0.4 mg/ml; ref Huang et al., 1997; cited from earlier work
[2] = test system: ATR-dependent serine 345 residue of Chk1; experiment: Western blot of UVB-induced Chk1 Ser345 phosphorylation in keratinocytes; type: cell-based, human; conditions: 2 mM caffeine, 75 mJ/cm^2 UVB (Figure 2a)
ATM = conditions: read-out: IC50 for ATM; ref Sarkaria et al., 1999; cited from earlier work
[3] = test system: primary human keratinocytes; experiment: Western blot of UVB-induced caspase 3 and PARP cleavage in keratinocytes; type: cell-based; conditions: 2 mM caffeine, 75 mJ/cm^2 UVB, 8 h (Figure 1a)
[4] = test system: primary human keratinocytes; experiment: UVB-induced apoptosis, sub-2N DNA content by flow cytometry; type: cell-based
[5] = test system: phosphorylation of Chk1 on Ser345; conditions: mice, oral caffeine in drinking water 0.4 mg/ml (2 mM); ref Lu et al., 2008; cited from earlier work
[6] = humans drinking 2–5 cups of coffee per day; ref de Leon et al., 2003; cited from earlier work
cAMP phosphodiesterase = conditions: read-out: IC50 cAMP phosphodiesterase; ref Butcher and Sutherland, 1962; cited from earlier work

## Cn1c(=O)c2c(ncn2C)n(C)c1=O [caffeine, Caffeine]
[1]
  effect on UV-induced skin carcinogenesis: inhibits
[2]
  effect on UVB-induced Chk1 phosphorylation at serine 345: inhibited
ATM
  IC50: 200 µM
[3]
  effect on UVB-induced cleavage of caspase 3 and PARP: augmented
[4]; 2 mM caffeine 30 min before 75 mJ/cm^2 UVB, 24 h, UVB alone 10% (Figure 1b)
  proportion of cells undergoing apoptosis (sub-2N DNA content): 24%
[4]; 2 mM caffeine alone (scrambled siRNA), 75 mJ/cm^2 UVB, 24 h (Figure 2c)
  proportion of cells undergoing apoptosis (sub-2N DNA content): 42%
[4]; 2 mM caffeine plus ATR siRNA, 75 mJ/cm^2 UVB, 24 h (Figure 2c)
  proportion of cells undergoing apoptosis (sub-2N DNA content): 48%
[4]; 2 mM caffeine pretreatment, 75 mJ/cm^2 UVB (Figure 1c)
  increase in UVB-induced apoptosis vs UVB alone (relative cell death): two- to three-fold increase; also recorded: more than doubled
[5]
  effect on UVB-induced phosphorylation of Chk1 on Ser345 in the epidermis: markedly inhibited
[6]
  plasma concentration of caffeine: 3.2 mg/l and 16 μM
cAMP phosphodiesterase
  IC50: 3000 µM

## CCCC(=O)Nc1ncnc2c1ncn2[C@@H]1O[C@@H]2COP(=O)(O)O[C@H]2[C@H]1OC(=O)CCC [dibutyryl cAMP, N^6,2′-O-Dibutyryladenosine 3′,5′-cyclic monophosphate sodium salt]
[4]; doses up to 300 μM, 30 min before 75 mJ/cm^2 UVB, 24 h (Figure 1d)
  effect on UVB-induced apoptosis: no effect
